Measured values taken from article PMC12630348, “Evidence of an activity-enhancing conformational shift in Arabidopsis thaliana plant cysteine oxidase 4 induced by binding of substrate or substrate-mimics” (The Journal of Biological Chemistry, 2025).

Key:
recombinant AtPCO4 [1] = target: T1, recombinant AtPCO4 (Arabidopsis thaliana, UniProt Q9SJI9); test: AtPCO4 activity toward RAP2.12_2—17 after 6 min aerobic preincubation of enzyme with peptidomimetic or control peptide (time course, LC-MS); format: biochemical; details: 200 μM peptide, 6 min aerobic preincubation with 0.1 μM AtPCO4; 20 μM RAP2.12_2—17; 25 °C
T1 construct: His tag followed by thrombin site (N); made in house; host or cells: E. coli BL21(DE3)
Experimental: (§1) Recombinant AtPCO4 was expressed using BL21(DE3) Escherichia coli cells containing the plasmid pET-28a(+)-His-THROMBIN-AtPCO4, and purified using Ni^2+-affinity and size exclusion chromatography as described in ([59]). WT AtPCO4 along with AtPCO4 Cys190Ala and AtPCO4 ADO loop variants were purified using this method. WT AtPCO4 reactivity toward the peptidomimetics was assessed by incubating (0.1 μM) recombinant enzyme with (200 μM) peptidomimetic in assay buffer (assay buffer: 50 mM Bis-tris propane, 40 mM NaCl, pH 8) supplemented with 20 μM FeSO4, 1 mM ascorbate, 5 mM TCEP, at 25 °C for 20 min prior to quenching in 5% (v/v) formic acid.
(§2) Reaction samples taken at 0 s, 30 s, 60 s, 90 s, 2 min, 5 min, 10 min, 15 min, and 20 min intervals were quenched in 5% (v/v) formic acid.
(§3) Spectra were assessed manually in MassHunter Qualitative Analysis B.07.00 software (Agilent) to ensure the correct ion was chosen for peptide oxidation quantification. RapidFire Integrator.exe was used to integrate areas of product and substrate ions (ii) an Acquity Ultra-high performance liquid chromatography system (Waters) coupled to a Xevo G2-XS Q-ToF mass spectrometer (Waters) operated in positive electrospray mode. Instrument parameters, data acquisition and data processing were controlled by MassLynx V4.1 software (Waters). Source parameters were adjusted to maximize sensitivity and minimize fragmentation. […] TOF mass scan range 50.00—2500.00 Da. Spectra were assessed manually in MassLynx V4.1 software (Waters) to ensure the correct ion was chosen for peptide oxidation quantification. MassLynx V4.1 software (Waters) was used to integrate areas of product and substrate ions.
(§4) Integration values obtained by MS were subsequently used to quantify reaction turnover (μmol of substrate oxidized per mg of enzyme), and graphs were generated using Prism 10 (GraphPad).

recombinant AtPCO4 [2] = target: T1, recombinant AtPCO4; test: AtPCO4 activity toward RAP2.12_2—17 with peptidomimetic, without peptidomimetic-AtPCO4 preincubation; format: biochemical; details: 200 μM peptidomimetic, 0.1 μM AtPCO4, 20 μM RAP2.12_2—17, 25 °C
Experimental: To test the significance of the peptidomimetic-AtPCO4 preincubation step, the method above was modified so that either 0 or 400 μM peptidomimetic was instead in mixture (ii) (Fig. 9B). Mixtures were again incubated separately at 25 °C for 6 min before being combined in equal volumes, initiating the reaction. Samples were taken and quenched in 5% (v/v) formic acid.
as §3, §4

recombinant AtPCO4 [3] = target: T1, recombinant AtPCO4; test: Substrate only assay: anaerobic preincubation of AtPCO4 with RAP2.12_2—17; format: biochemical
Experimental: The assay plate was immediately removed to aerobic conditions, initiating the reaction. Samples were taken at 0 s, 2 min, 5 min, 10 min, 15 min, and 20 min and quenched in 5% (v/v) formic acid.
as §3, §4

AtPCO4 Cys190Ala variant = test: Cys190Ala AtPCO4 variant activity toward RAP2.12_2—17 after preincubation with peptidomimetic; format: biochemical, Arabidopsis thaliana
Experimental: as §1, §2
Figure S15 Investigating the potential formation of a Cys190-Tyr192 activity-enhancing crosslink. […] Standard conditions: 5 mM TCEP, 20 μM FeSO4, 1 mM ascorbate, 25 °C. […] Error bars display S.D (n=3).

recombinant AtPCO4 [4] = target: T1, recombinant AtPCO4; test: AtPCO4 activity toward RAP2.12_2—15 or RAP2.12_2—17 in the presence and absence of peptidomimetic 10 (Fig. S16); format: biochemical; details: 14-mer RAP2.12 substrate, slope of turnover against time (minutes)
Experimental: as §2
Standard conditions: 5 mM TCEP, 20 μM FeSO4, 1 mM ascorbate, 25 °C. Turnover calculated as μmol RAP2.122—15/17 oxidised per […] of AtPCO4 (data shown is not normalised). Error bars display S.D (n=3).

XGGAIISDFIPPPR [Peptidomimetic 4, 14-mer X… with N-terminal X = S-methyl cysteine (linear thioether)]
x (slope between 0-5 min), Peptidomimetic rxn / CP rxn (recombinant AtPCO4 [1]): 0.31

XGGAIISDFIPPPR [Peptidomimetic 12, 14-mer X… with N-terminal X = AlG]
x (slope between 0-5 min), Peptidomimetic rxn, no preincubation (recombinant AtPCO4 [2]): 0.03158

RAP2.12_2—17: 16-mer N-terminal L-Cys substrate peptide of AtPCO4 representing AtRAP2.12, purchased from GL Biochem (CGGAIISDFIPPPRSR; UniProt Q9SSA8 2-17, looked up, fragment)
x (slope between 5-15 min), Preincubation rxn (recombinant AtPCO4 [3]; 20 μM RAP2.12_2—17, 6 min anaerobic preincubation with 0.1 μM WT AtPCO4): 0.099
x (slope between 5-15 min), Preincubation rxn (recombinant AtPCO4 [3]; 50 μM RAP2.12_2—17, 6 min anaerobic preincubation with 0.1 μM WT AtPCO4): 0.275
x (slope between 5-15 min), No Preincubation (recombinant AtPCO4 [3]; 50 μM RAP2.12_2—17, no preincubation with AtPCO4 (anaerobic preparation)): 0.175
x (slope between 5-15 min), Preincubation rxn (recombinant AtPCO4 [3]; 100 μM RAP2.12_2—17, 6 min anaerobic preincubation with 0.1 μM WT AtPCO4): 0.34
x (slope between 5-15 min), No Preincubation (recombinant AtPCO4 [3]; 100 μM RAP2.12_2—17, no preincubation with AtPCO4 (anaerobic preparation)): 0.209
x (slope between 5-15 min), Preincubation rxn (recombinant AtPCO4 [3]; 200 μM RAP2.12_2—17, 6 min anaerobic preincubation with 0.1 μM WT AtPCO4): 0.303
x (slope between 5-15 min), No Preincubation (recombinant AtPCO4 [3]; 200 μM RAP2.12_2—17, no preincubation with AtPCO4 (anaerobic preparation)): 0.15

XGGAIISDFIPPPR [Peptidomimetic 3, 14-mer X… with N-terminal X = penicillamine]
x (slope between 0-5 min), Peptidomimetic rxn, no preincubation (recombinant AtPCO4 [2]): 0.01063

XGGAIISDFIPPPR [Peptidomimetic 7, 14-mer X… with N-terminal X = 3MePro, Cys-analogue devoid of an amino group]
increase in the initial rate of RAP2.12_2—17 oxidation between 0—5 min, Cys190Ala AtPCO4 variant (AtPCO4 Cys190Ala variant; 200 μM peptidomimetic, 6 min preincubation with 0.1 μM C190A AtPCO4, 20 μM RAP2.12_2—17, relative to control without peptidomimetic (=1), 25 °C, n = 3): 5.21 fold
Initial rate: x (slope between 0-5 min), Peptidomimetic rxn (AtPCO4 Cys190Ala variant; C190A AtPCO4, slope of turnover time course between 0-5 min): 0.4559
x (slope between 0-5 min), Peptidomimetic rxn / CP rxn (recombinant AtPCO4 [1]): 0.78
x (slope between 0-5 min), Peptidomimetic rxn, no preincubation (recombinant AtPCO4 [2]): 0.03853

XGGAIISDFIPPPR [Peptidomimetic 6, 14-mer X… with N-terminal X = TM3C (thiomorpholine, cyclized thioether)]
x (slope between 0-5 min), Peptidomimetic rxn / CP rxn (recombinant AtPCO4 [1]): 0.18

XGGAIISDFIPPPR [Peptidomimetic 8, 14-mer X… with N-terminal X = Nα-Me-Cys]
x (slope between 0-5 min), Peptidomimetic rxn, no preincubation (recombinant AtPCO4 [2]): 0.1162

XGGAIISDFIPPPR [Peptidomimetic 13, 14-mer X… with N-terminal X = Pra]
x (slope between 0-5 min), Peptidomimetic rxn / CP rxn (recombinant AtPCO4 [1]): 0.34

XGGAIISDFIPPPR [Peptidomimetic 2, 14-mer X… with N-terminal X = homocysteine]
x (slope between 0-5 min), Peptidomimetic rxn, no preincubation (recombinant AtPCO4 [2]): 0.05853

XGGAIISDFIPPPR [Peptidomimetic 11, 14-mer X… with N-terminal X = hSer]
x (slope between 0-5 min), Peptidomimetic rxn / CP rxn (recombinant AtPCO4 [1]): 0.29

XGGAIISDFIPPPR [Peptidomimetic 10, 14-mer X… with N-terminal X = Ser]
x (slope between 0-5 min), Peptidomimetic rxn (recombinant AtPCO4 [4]): 0.6491
x (slope between 0-5 min), Peptidomimetic rxn, no preincubation (recombinant AtPCO4 [2]): 0.07282

XGGAIISDFIPPPR [Peptidomimetic 1, 14-mer X… mimic of RAP2.12 with N-terminal X = D-Cys]
x (slope between 0-5 min), Peptidomimetic rxn / CP rxn (recombinant AtPCO4 [1]): 0.28
